Measurements published in patent publication US20210198277A1, “AMINE-SUBSTITUTED ARYL OR HETEROARYL COMPOUNDS” (Epizyme, Inc., priority 2016, published 2021).
Where two headings read alike, the source gives them in different places.

Experiments:
human EHMT2 913-1193 = molecular target: T1, human EHMT2 913-1193 (Homo sapiens, UniProt Q96KQ7); assay: EHMT2 enzyme assay on histone peptide substrate (EHMT2 PEP); assay type: biochemical; details: read-out: EHMT2 PEP (IC50 μM)
T1 construct: recombinant purified human EHMT2 913-1193, Viva; purchased Viva
T1 sequence (Q96KQ7 913-1193): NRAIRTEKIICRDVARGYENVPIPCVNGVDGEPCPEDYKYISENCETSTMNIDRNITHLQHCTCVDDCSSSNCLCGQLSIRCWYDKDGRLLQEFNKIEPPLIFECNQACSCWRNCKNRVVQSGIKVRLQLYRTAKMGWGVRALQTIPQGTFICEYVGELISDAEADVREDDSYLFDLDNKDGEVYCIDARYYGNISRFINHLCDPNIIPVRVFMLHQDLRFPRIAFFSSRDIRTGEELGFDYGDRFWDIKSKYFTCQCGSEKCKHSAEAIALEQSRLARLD
How it was run: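 Radiometric methyltransferase read-out: ^3H-methyl transfer from ^3H-SAM onto biotinylated histone peptide, captured on streptavidin Flashplates after 60 min reaction at room temperature. Enzyme 0.031 nM, preincubated 30 min with inhibitor; buffer 20 mM Bicine pH 7.5 with 1 mM TCEP; top compound concentration 50 μM final, 2% DMSO.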

EHMT1 = molecular target: T2, EHMT1 (Homo sapiens, UniProt Q9H9B1); assay: EHMT1 enzyme assay on peptide substrate (EHMT1 PEP); assay type: biochemical; details: read-out: EHMT1 PEP (IC50 μM)
T2 sequence (Q9H9B1 1-1298): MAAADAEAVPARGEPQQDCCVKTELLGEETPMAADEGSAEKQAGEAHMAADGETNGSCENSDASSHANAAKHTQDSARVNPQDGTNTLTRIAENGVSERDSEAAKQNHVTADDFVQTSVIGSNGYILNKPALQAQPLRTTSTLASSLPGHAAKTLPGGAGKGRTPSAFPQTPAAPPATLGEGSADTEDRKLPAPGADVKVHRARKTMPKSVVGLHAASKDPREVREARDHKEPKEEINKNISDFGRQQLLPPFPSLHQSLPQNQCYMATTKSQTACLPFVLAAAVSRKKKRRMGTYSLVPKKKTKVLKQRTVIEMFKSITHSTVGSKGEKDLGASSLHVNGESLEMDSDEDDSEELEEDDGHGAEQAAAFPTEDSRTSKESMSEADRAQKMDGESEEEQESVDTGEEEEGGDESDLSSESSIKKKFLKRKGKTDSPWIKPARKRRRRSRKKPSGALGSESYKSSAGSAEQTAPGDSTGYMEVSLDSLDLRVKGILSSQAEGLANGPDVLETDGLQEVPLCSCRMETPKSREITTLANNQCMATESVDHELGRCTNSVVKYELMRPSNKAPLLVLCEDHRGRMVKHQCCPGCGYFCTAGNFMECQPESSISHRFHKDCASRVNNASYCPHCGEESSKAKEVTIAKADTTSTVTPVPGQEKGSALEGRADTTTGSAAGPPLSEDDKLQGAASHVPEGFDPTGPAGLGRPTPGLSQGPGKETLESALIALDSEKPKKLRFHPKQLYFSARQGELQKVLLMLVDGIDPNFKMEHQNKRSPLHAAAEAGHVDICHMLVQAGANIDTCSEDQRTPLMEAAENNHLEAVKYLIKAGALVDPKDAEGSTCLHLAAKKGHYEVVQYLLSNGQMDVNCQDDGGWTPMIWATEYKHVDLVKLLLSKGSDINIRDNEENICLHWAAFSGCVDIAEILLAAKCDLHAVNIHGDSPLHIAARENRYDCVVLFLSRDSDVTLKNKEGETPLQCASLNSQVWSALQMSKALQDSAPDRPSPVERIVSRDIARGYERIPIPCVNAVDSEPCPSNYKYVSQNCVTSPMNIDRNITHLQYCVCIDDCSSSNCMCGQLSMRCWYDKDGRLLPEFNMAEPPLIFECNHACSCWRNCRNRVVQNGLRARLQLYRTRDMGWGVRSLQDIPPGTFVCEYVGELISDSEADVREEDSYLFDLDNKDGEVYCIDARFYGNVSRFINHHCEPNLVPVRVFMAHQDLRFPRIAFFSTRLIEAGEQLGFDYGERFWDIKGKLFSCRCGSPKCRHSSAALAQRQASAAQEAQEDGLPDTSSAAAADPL

IC50 (human EHMT2 913-1193; Table III)	IC50 (EHMT1; Table III)	IC50 (human EHMT2 913-1193; Table II)	IC50 (EHMT1; Table II)	Compound
0.1 to 1 µM	0.1 to 1 µM			CNc1ccnc(Nc2ccc(OC)c(COC3CCN(C)C3)c2)n1 (stereo not drawn) [Compound 407, N^2-(4-methoxy-3-(((1-methylpyrrolidin-3-yl)oxy)methyl)phenyl)-N^4-methylpyrimidine-2,4-diamine]
> 10 µM	> 10 µM			CNc1cc(C#N)nc(Nc2ccc(OC)c(OCCCN3CCCC3)c2)n1 [Compound 384]
0.1 to 1 µM	0.1 to 1 µM			CCN1CCC(COc2cc(Nc3nccc(NC)n3)ccc2OC)C1 (stereo not drawn) [Compound 408, N^2-(3-((1-ethylpyrrolidin-3-yl)methoxy)-4-methoxyphenyl)-N^4-methylpyrimidine-2,4-diamine]
> 10 µM	> 10 µM			CNc1ccnc(Nc2ccc(F)c(OCCCN3CCCC3)c2)n1 [Compound 368]
0.1 to 1 µM	< 0.1 µM			CNc1ccnc(Nc2ccc(OC)c(OCCCN(C)C)c2)n1 [Compound 387]
> 10 µM	> 10 µM			CNc1ccnc(Nc2ccc3cnn(CCCN(C)C)c3c2)n1 [Compound 388, N^2-(1-(3-(dimethylamino)propyl)-1H-indazol-6-yl)-N^4-methylpyrimidine-2,4-diamine]
> 10 µM	> 10 µM			CNc1ccnc(Nc2ccc3cnn(CCN(C)C)c3c2)n1 [Compound 386]
< 0.1 µM	< 0.1 µM			CNc1nccc(Nc2ccc(OC)c(OCCCN3CCCC3)c2)n1 [Compound 355]
< 0.1 µM	< 0.1 µM			CNc1ccnc(Nc2ccc(OC)c(OCC3CCN(C(C)C)C3)c2)n1 (stereo not drawn) [Compound 409, N^2-(3-((1-isopropylpyrrolidin-3-yl)methoxy)-4-methoxyphenyl)-N^4-methylpyrimidine-2,4-diamine]
> 10 µM	> 10 µM			CNc1ccnc(Nc2ccc3cn(CCN(C)C)nc3c2)n1 [Compound 404, N^2-(2-(2-(dimethylamino)ethyl)-2H-indazol-6-yl)-N^4-methylpyrimidine-2,4-diamine]
1 to 10 µM	0.1 to 1 µM			CNc1ccnc(Nc2ccc(OC)c(OCC3CCN(C)C3)c2)n1 (single isomer, unassigned) [Compound 415]
		< 0.1 µM	< 0.1 µM	COc1ccc(Nc2nccc(NCC3CCNCC3)n2)cc1OCCCN1CCCC1 [Compound 90]
1 to 10 µM	1 to 10 µM			CNc1ccnc(Nc2ccc(OC)c(OCCN3CCOCC3)c2)n1 [Compound 361]
		< 0.1 µM	< 0.1 µM	CNc1ccnc(Nc2ccc(OC)c(OCCCN3CCCC3)c2)n1 [Compound 1, N^2-(4-methoxy-3-(3-(pyrrolidin-1-yl)propoxy)phenyl)-N^4-methylpyrimidine-2,4-diamine]
		< 0.1 µM	< 0.1 µM	COc1ccc(Nc2nccc(NCC3CCOCC3)n2)cc1OCCCN1CCCC1 [Compound 3, N^2-(4-methoxy-3-(3-(pyrrolidin-1-yl)propoxy)phenyl)-N^4-((tetrahydro-2H-pyran-4-yl)methyl)pyrimidine-2,4-diamine]
> 10 µM	> 10 µM			CNc1ccnc(Nc2ccc3cn(CCCN(C)C)nc3c2)n1 [Compound 405]
		0.1 to 1 µM	0.1 to 1 µM	COc1ccc(Nc2nccc(NC3CCOCC3)n2)cc1OCCCN1CCCC1 [Compound 5, N^2-(4-methoxy-3-(3-(pyrrolidin-1-yl)propoxy)phenyl)-N^4-(tetrahydro-2H-pyran-4-yl)pyrimidine-2,4-diamine]
> 10 µM	> 10 µM			CNc1ccnc(Nc2ccc3c(c2)N(C(=O)CCN(C)C)CC3)n1 [Compound 363]
0.1 to 1 µM	0.1 to 1 µM			CNc1ccnc(Nc2ccc(OC)c(COCCN3CCCC3)c2)n1 [Compound 382]
0.1 to 1 µM	1 to 10 µM			CNc1ccnc(Nc2ccc(OC)c(OCCCN3CCCC3)c2)c1 [Compound 379]
> 10 µM	> 10 µM			CNc1ccnc(Nc2ccc3c(C)nn(CCCN(C)C)c3c2)n1 [Compound 389]
0.1 to 1 µM	0.1 to 1 µM			COc1ccc(Nc2nccc(N)n2)cc1OCCCN1CCCC1 [Compound 369]
< 0.1 µM	< 0.1 µM			CCc1cc(NC)nc(Nc2ccc(OC)c(OCCCN3CCCC3)c2)n1 [Compound 364]
0.1 to 1 µM	< 0.1 µM			CNc1ccnc(Nc2ccc(OC)c(OCC3CCN(C)C3)c2)n1 (stereo not drawn) [Compound 393]

The remaining lines, values behind:

Compound	IC50 (human EHMT2 913-1193; Table III)	IC50 (EHMT1; Table III)	IC50 (human EHMT2 913-1193; Table II)	IC50 (EHMT1; Table II)
CNc1nc(Nc2ccc(OC)c(OCCCN3CCCC3)c2)ncc1C(F)(F)F [Compound 358]	> 10 µM	> 10 µM		
COc1ccc(Nc2nccc(NCC3CCOCC3)n2)cc1OC1CC2(C1)CN(C)C2 [Compound 367]	> 10 µM	> 10 µM		
CNc1ncc(C(F)(F)F)c(Nc2ccc(OC)c(OCCCN3CCCC3)c2)n1 [Compound 359]	> 10 µM	> 10 µM		
CC(C)Nc1ccnc(Nc2cccc(OCCCN3CC[C@@H](F)C3)c2)n1 [Compound 375]	> 10 µM	> 10 µM		
CNc1nc(Nc2ccc(OC)c(OCCCN3CCCC3)c2)ncc1C#N [Compound 357]	> 10 µM	> 10 µM		
COc1ccc(Nc2nccc(NCC(=O)N(C)c3ccccc3)n2)cc1OCCCN1CCCC1 [Compound 52]			1 to 10 µM	1 to 10 µM
CNc1ccnc(Nc2cccc(N3CCC(N)C3)c2)n1 (stereo not drawn) [Compound 400]	1 to 10 µM	> 10 µM		
COc1ccc(Nc2nccc(NCC3CCN(CC(F)(F)F)CC3)n2)cc1OCCCN1CCCC1 [Compound 4, N^2-(4-methoxy-3-(3-(pyrrolidin-1-yl)propoxy)phenyl)-N^4-((1-(2,2,2-trifluoroethyl)piperidin-4-yl)methyl)pyrimidine-2,4-diamine]			< 0.1 µM	0.1 to 1 µM
COc1ccc(Nc2ccnc3[nH]ccc23)cc1OCCCN1CCCC1 [Compound 374]	1 to 10 µM	1 to 10 µM		
CNc1nc(Nc2ccc(OC)c(OCCCN3CCCC3)c2)nc(C)c1F [Compound 360]	0.1 to 1 µM	0.1 to 1 µM		
CNc1cc(C)nc(Nc2ccc(F)c(OCCCN3CCCC3)c2)n1 [Compound 356]	> 10 µM	> 10 µM		
CCNC(=O)c1cc(Nc2nccc(NC)n2)ccc1Cl [Compound 396]	> 10 µM	1 to 10 µM		
COc1ccc(Nc2nccc(CNC3CCOCC3)n2)cc1OCCCNc1ccccc1 [Compound 365]	> 10 µM	> 10 µM		
CNc1ccnc(Nc2ccc3ccn(CCN4CCCC4)c(=O)c3c2)n1 [Compound 381]	1 to 10 µM	> 10 µM		
COc1ccc(Nc2nccc(N(C)Cc3ccncc3)n2)cc1OCCCN1CCCC1 [Compound 56]			1 to 10 µM	1 to 10 µM
COc1ccc(Nc2cccc3[nH]ccc23)cc1OCCCN1CCCC1 [Compound 265, N-(4-methoxy-3-(3-(pyrrolidin-1-yl)propoxy)phenyl)-1H-indol-4-amine]	> 10 µM	> 10 µM		
COc1ccc(Nc2nccc(NCC(=O)N3CCOCC3)n2)cc1OCCCN1CCCC1 [Compound 51]			0.1 to 1 µM	0.1 to 1 µM
CNc1cc(C)nc(Nc2ccc(OC)c(OCC3CCN(C)C3)c2)n1 (single isomer, unassigned) [Compound 417]	0.1 to 1 µM	0.1 to 1 µM		
